Like-named read-outs stand apart in the source and are kept apart here. Some results are limits rather than exact numbers.

What is called IC50 is the concentration that inhibits the measured activity by half.

Assay [1] has as its system Phosphorylation of ERK1/2 in MIA PaCa-2 cells. Briefly: Phospho-ERK1/2 MSD assay in MIA PaCa-2 cells. Type of assay: cell-based. The note with it: read-out: p-ERK IC50 (2 h, MiaPaCa-2; μM). The gist of the method:
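Phospho-ERK1/2 measured by MSD electrochemiluminescence kit in RIPA lysates of MIA PaCa-2 cells. Cells were treated with compound titrations for 2 or 4 h at 37 °C, 5% CO2, followed by a 10 min pulse of 10 ng/mL EGF.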

Assay [2] deals with Phosphorylation of ERK1/2 in A549 cells. The assay can be described thus: Phospho-ERK1/2 MSD assay in A549 cells. Type of assay: cell-based. The note with it: read-out: p-ERK IC50 (2 h, A549; μM). The gist of the method:
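MSD electrochemiluminescent read-out of phospho-ERK1/2 in RIPA lysates. Cells in RPMI 1640 with 10% FBS received titrated compound for 2 or 4 h, then 10 ng/mL EGF for 10 min before ice-cold PBS wash and lysis.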

Assay [3] has as its target GDP-bound KRAS protein (aa 1-169), containing both G12C and C118A amino acid substitutions (Homo sapiens (Human), UniProt P01116, C118A/G12C). The assay can be described thus: Coupled nucleotide exchange assay (SOS-mediated nucleotide exchange, AlphaScreen). In kind it is biochemical. The note with it: 5 min compound pre-incubation; for IC50: read-out: Coupled exchange IC50 (5 min; μM).

The mark [4] stands for this setting: Homo sapiens, MIA PaCa-2, 2 h, 2 h compound treatment, MIA PaCa-2 cells, EGF stimulated.
[5] abbreviates: Homo sapiens, A549, 2 h, 2 h compound treatment, A549 cells, EGF stimulated.
[6] abbreviates: 2 h compound treatment, MIA PaCa-2 cells, EGF stimulated.
Setting [7] is: 2 h compound treatment, A549 cells, EGF stimulated.

GDP-bound KRAS protein (aa 1-169), containing both G12C and C118A amino acid substitutions, sequence (P01116 other isoform, or with tags, fused parts or gaps G12C/C118A): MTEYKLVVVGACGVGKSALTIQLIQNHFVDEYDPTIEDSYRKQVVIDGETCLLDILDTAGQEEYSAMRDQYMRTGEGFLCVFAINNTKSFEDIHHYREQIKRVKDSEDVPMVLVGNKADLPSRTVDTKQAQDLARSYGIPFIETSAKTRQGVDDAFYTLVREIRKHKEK

In the case of `C=CC(=O)N1C[C@H](C)N(c2nc(=O)n(-c3c(C)ccnc3C(C)C)c3nc(-c4cc(C)ccc4F)c(F)cc23)C[C@H]1C` (atropisomer, axis not shown; (M)) [Example 94-4, (M)-4-[(2S,5R)-2,5-dimethyl-4-prop-2-enoyl-piperazin-1-yl]-6-fluoro-7-(2-fluoro-5-methyl-phenyl)-1-(2-isopropyl-4-methyl-3-pyridyl)pyrido [2,3-d]pyrimidin-2-one], the IC50 is 0.218 µM in assay [1] (setting [4]), above 7.5 µM in assay [2] (setting [5]) and 0.222 µM in assay [3].
Taken in the same sequence, the figures for `C=CC(=O)N1CCN(c2nc(=O)n(-c3c(C)cc(N)nc3C(C)C)c3nc(-c4ccccc4F)c(Cl)cc23)[C@@H](C)C1` (single isomer, unassigned) [Example 183-2] were 0.043 µM, above 7.5 µM and 0.058 µM.
Taken in the same sequence, the figures for `C=CC(=O)N1C[C@H](C)N(c2nc(=O)n(-c3c(C(C)C)nc(CN4CCN(C)CC4)nc3C(C)C)c3nc(-c4ccccc4F)c(Cl)cc23)C[C@H]1C` [Example 170, 6-Chloro-1-[4,6-diisopropyl-2-[(4-methylpiperazin-1-yl)methyl]pyrimidin-5-yl]-4-[(2S,5R)-2,5-dimethyl-4-prop-2-enoyl-piperazin-1-yl]-7-(2-fluorophenyl)pyrido[2,3-d]pyrimidin-2-one] were 0.077 µM, above 7.5 µM and 0.064 µM.
Taken in the same sequence, the figures for `C=CC(=O)N1C[C@H](C)N(c2nc(=O)n(-c3c(Cl)ncnc3C(C)C)c3nc(-c4ccccc4C)c(Cl)cc23)C[C@H]1C` [Example 102-6, 6-Chloro-1-(4-chloro-6-isopropyl-pyrimidin-5-yl)-4-[(2S,5R)-2,5-dimethyl-4-prop-2-enoyl-piperazin-1-yl]-7-(o-tolyl)pyrido[2,3-d]pyrimidin-2-one] were 0.063 µM, above 7.5 µM and 0.066 µM.
For the molecule `C=CC(=O)N1C[C@H](C)N(c2nc(=O)n(-c3c(C)cc(CN(C)C)cc3C(C)C)c3nc(-c4ccccc4F)c(F)cc23)C[C@H]1C` [Example 80-20, 1-[4-[(Dimethylamino)methyl]-2-isopropyl-6-methyl-phenyl]-4-[(2S,5R)-2,5-dimethyl-4-prop-2-enoyl-piperazin-1-yl]-6-fluoro-7-(2-fluorophenyl)pyrido[2,3-d]pyrimidin-2-one], the IC50 in assay [1] (setting [6]) is 0.735 µM; in assay [2] (setting [5]), above 7.5 µM; in assay [3], 0.763 µM.
Regarding `C=CC(=O)N1C[C@H](C)N(c2nc(=O)n(-c3c(N(C)C)ccnc3C(C)C)c3nc(-c4ccccc4C(C)C)c(Cl)cc23)C[C@H]1C` (single isomer, unassigned) [Example 103-1-2], the IC50 is 0.039 µM in assay [1] (setting [6]), above 7.5 µM in assay [2] (setting [7]) and 0.053 µM in assay [3].
Take `C=CC(=O)N1C[C@H](C)N(c2nc(=O)n(-c3c(CC)ncnc3C(C)C)c3nc(-c4ccccc4C)c(Cl)cc23)C[C@H]1C` [Example 109-2, 6-Chloro-4-[(2S,5R)-2,5-dimethyl-4-prop-2-enoyl-piperazin-1-yl]-1-(4-ethyl-6-isopropyl-pyrimidin-5-yl)-7-(o-tolyl)pyrido[2,3-d]pyrimidin-2-one]: the half-maximal inhibitory concentration (IC50) is 0.098 µM in assay [1] (setting [4]) and above 7.5 µM in assay [2] (setting [5]). In addition, the “Coupled exchange IC50 (5 min; μM)” value in assay [3] was determined as 0.107 µM.
Regarding `C=CC(=O)N1C[C@H](C)N(c2nc(=O)n(-c3c(C)cc(CC)nc3C(C)C)c3nc(-c4ccccc4F)c(Cl)cc23)C[C@H]1C` (single isomer, unassigned) [Example 166-1], the values for the 50% inhibitory concentration (IC50) in assay [1] (setting [4]) and in assay [2] (setting [5]) were 0.118 µM and above 7.5 µM, respectively. The “Coupled exchange IC50 (5 min; μM)” value in assay [3] came out at 0.049 µM.
For `C=CC(=O)N1C[C@H](C)N(c2nc(=O)n(-c3c(C)nc(CC)nc3C(C)C)c3nc(-c4ccccc4F)c(Cl)cc23)C[C@H]1C` (single isomer, unassigned) [Example 199] the same measures were 0.087 µM, above 7.5 µM and 0.132 µM.
As for `C=CC(=O)N1C[C@H](C)N(c2nc(=O)n(-c3c(C)ccnc3C(C)C)c3nc(-c4ccccc4N(C)C)c(Cl)cc23)C[C@H]1C` (atropisomer, axis not shown; (M)) [Example 92-19, (M)-6-Chloro-7-[2-(dimethylamino)phenyl]-4-[(2S,5R)-2,5-dimethyl-4-prop-2-enoyl-piperazin-1-yl]-1-(2-isopropyl-4-methyl-3-pyridyl)pyrido [2,3-d]pyrimidin-2-one], the IC50 in assay [1] (setting [4]) is 0.027 µM; in assay [2] (setting [5]), above 7.5 µM; in assay [3], 0.044 µM.
For the molecule `C=CC(=O)N1C[C@H](C)N(c2nc(=O)n(-c3c(CN4CCC4)cccc3C(C)C)c3nc(-c4ccccc4F)c(Cl)cc23)C[C@H]1C` [Example 80-12, 1-[2-(azetidin-1-ylmethyl)-6-isopropyl-phenyl]-6-chloro-4-[(2S,5R)-2,5-dimethyl-4-prop-2-enoyl-piperazin-1-yl]-7-(2-fluorophenyl)pyrido[2,3-d]pyrimidin-2-one], the IC50 was 0.074 µM in assay [1] (setting [4]), above 7.5 µM in assay [2] (setting [5]) and 0.064 µM in assay [3].
For the molecule `C=CC(=O)N1C[C@H](C)N(c2nc(=O)n(-c3c(C)ccnc3C(C)C)c3nc(-c4cc(Cl)ccc4F)c(Cl)cc23)C[C@H]1C` (atropisomer, axis not shown; (M)) [Example 92-44, (M)-6-Chloro-7-(5-chloro-2-fluoro-phenyl)-4-[(2S,5R)-2,5-dimethyl-4-prop-2-enoyl-piperazin-1-yl]-1-(2-isopropyl-4-methyl-3-pyridyl)pyrido [2,3-d]pyrimidin-2-one], the IC50 in assay [1] (setting [4]) is 0.098 µM; in assay [2] (setting [5]), above 7.5 µM; in assay [3] it was 0.04 µM.
As to `C=CC(=O)N1[C@H](C)CN(c2nc(=O)n(-c3c(C(C)C)ccnc3C(C)C)c3nc(-c4ccccc4C)c(Cl)cc23)C[C@@H]1C` [Example 124-11, 6-Chloro-1-(2,4-diisopropyl-3-pyridyl)-4-[(3R,5S)-3,5-dimethyl-4-prop-2-enoyl-piperazin-1-yl]-7-(o-tolyl)pyrido[2,3-d]pyrimidin-2-one], the IC50 in assay [1] (setting [4]) was 0.098 µM; in assay [2] (setting [5]), above 7.5 µM; in assay [3] it was 0.075 µM.
Consider `C=CC(=O)N1CCN(c2nc(=O)n(-c3c(C)ccnc3C(C)C)c3nc(-c4ccccc4F)c(Cl)cc23)CC1CC#N` (atropisomer, axis not shown; (M)) [Example 145-2-1, (M)-2-[4-[6-Chloro-7-(2-fluorophenyl)-1-(2-isopropyl-4-methyl-3-pyridyl)-2-oxo-pyrido[2,3-d]pyrimidin-4-yl]-1-prop-2-enoyl-piperazin-2-yl]acetonitrile], for which the IC50 was 0.356 µM in assay [1] (setting [6]), above 7.5 µM in assay [2] (setting [7]) and 0.294 µM in assay [3].
On to `C=CC(=O)N1[C@H](C)CN(c2nc(=O)n(-c3c(C(C)C)ccnc3C(C)C)c3nc(-c4ccccc4C)c(Cl)cc23)C[C@@H]1C` [Example 125-11, 6-Chloro-1-(2,4-diisopropyl-3-pyridyl)-4-[(3R,5S)-3,5-dimethyl-4-prop-2-enoyl-piperazin-1-yl]-7-(o-tolyl)pyrido[2,3-d]pyrimidin-2-one], for which the IC50 in assay [1] (setting [6]) was 0.187 µM; in assay [2] (setting [7]), above 7.5 µM; in assay [3], 0.091 µM.
`C=CC(=O)N1C[C@H](C)N(C2=NC(=O)CN(c3c(C)ccnc3C(C)C)c3nc(-c4ccccc4F)c(Cl)cc32)C[C@H]1C` [Example 218, 5-((2S,5R)-4-Acryloyl-2,5-dimethylpiperazin-1-yl)-7-chloro-8-(2-fluorophenyl)-1-(2-isopropyl-4-methylpyridin-3-yl)-1,2-dihydro-3H-pyrido[2,3-e][1,4]diazepin-3-one]: the 50% inhibitory concentration (IC50) was 0.035 µM in assay [1] (Homo sapiens, MIA PaCa-2, 2 h); above 7.5 µM in assay [2] (Homo sapiens, A549, 2 h); 0.094 µM in assay [3].
On to `C=CC(=O)N1C[C@H](C)N(c2nc(=O)n(-c3c(C)ccnc3C(C)C)c3nc(-c4cccc(C)c4F)c(Cl)cc23)C[C@H]1C` (atropisomer, axis not shown; (M)) [Example 92-58, (M)-6-Chloro-4-[(2S,5R)-2,5-dimethyl-4-prop-2-enoyl-piperazin-1-yl]-7-(2-fluoro-3-methyl-phenyl)-1-(2-isopropyl-4-methyl-3-pyridyl)pyrido [2,3-d]pyrimidin-2-one], for which the IC50 in assay [1] (setting [4]) was 0.023 µM; in assay [2] (setting [5]), above 7.5 µM; in assay [3] it was 0.074 µM.
For `C=CC(=O)N1C[C@H](C)N(c2nc(=O)n(-c3c(C(C)C)nc(N4CCOCC4)nc3C(C)C)c3nc(-c4ccccc4F)c(Cl)cc23)C[C@H]1C` [Example 107-3, 6-Chloro-1-(4,6-diisopropyl-2-morpholino-pyrimidin-5-yl)-4-[(2S,5R)-2,5-dimethyl-4-prop-2-enoyl-piperazin-1-yl]-7-(2-fluorophenyl)pyrido [2,3-d]pyrimidin-2-one] the same measures were 0.144 µM, 3.73 µM and 0.114 µM.

The record behind these values is patent publication US11285156B2, “Substituted piperazines as KRAS G12C inhibitors” (Amgen Inc., priority 2018, dated 2022).
